Measurements as given in patent publication US11660290B2, “Affinity based drug release formulations” (McMaster University, priority 2016, dated 2023).

Tests used:
[1] = molecular target: Alexa-Fluor 488 streptavidin (Streptomyces avidinii, UniProt P22629); experiment: Release study of fluorescent streptavidin from agarose-desthiobiotin hydrogels; conditions: for release of fluorescent streptavidin from the hydrogel (rate, in words): 1 wt % Ag-D gel, insoluble biotin derivative, PBS
Protocol: Ag-D was dissolved in 0.1M PBS at 2 wt %, Alexa-Fluor 488 streptavidin was subsequently added and the mixture was incubated at 37° C. for 2 h. […] Gels were cured at 4 C for 20 min to 1 hr and initial fluorescent readings of the gel were taken. 200 uL of PBS was subsequently dispensed overtop of the gels and collected and replenished at specific time intervals. The loss of fluorescence as well as the released fluorescent streptavidin was measured at specific time points (FIGS. 5B and 6).

[2] = system: HUVEC
Protocol: Additionally, toxicity studies were performed using the MTS assay using HUVEC, assessing the toxicity of the components of the drug delivery system as well as the complete drug delivery system (FIGS. 11 A and B).

[3] = Transparency of agarose hydrogels with solid suspension of oleylbiotin; type: physicochemical; conditions: solid suspension in agarose hydrogel

Alexa-Fluor 488 streptavidin, sequence (P22629 25-183): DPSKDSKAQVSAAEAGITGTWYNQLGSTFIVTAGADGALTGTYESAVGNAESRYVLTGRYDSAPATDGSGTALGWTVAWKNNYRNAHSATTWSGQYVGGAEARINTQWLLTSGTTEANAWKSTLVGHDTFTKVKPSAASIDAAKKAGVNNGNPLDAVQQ

## O=C(O)CCCC[C@@H]1SC[C@@H]2NC(=O)N[C@@H]21 [biotin, reference compound]
[1]
  release of fluorescent streptavidin from the hydrogel (rate, in words): most rapid release

## Tert-butyl biotin
[1]
  release of fluorescent streptavidin from the hydrogel (rate, in words): slower release

## oleyl-biotin
[2]
  toxicity of single components of the drug delivery system: None of the components display any inherent toxicity except for the solid suspension of oleylbiotin
[3]
  concentration that did not decrease the transparency of agarose gels: ≤ 80 µM
[1]
  release of fluorescent streptavidin from the hydrogel (rate, in words): slowest and longest release
[1]; various oleylbiotin concentrations, system of Example 1
  time over which oleylbiotin concentration modulates the release of streptavidin: at least 150 days
[1]; wild-type streptavidin
  duration of streptavidin release (extrapolation of preliminary experiments): > 100 days
